Data on 8 compounds can be found in patent US4835162A (priority 1987, dated 1989).

The IC50 is the concentration at which inhibition is half-maximal.

“And” between values parts separate entries of the source, which are not always exact repeats. Identical values can stand only once. “Also recorded” adds a separate entry of the source. Like-named read-outs stand apart in the source and are kept apart here.

For data set [1], the system named is rats. The conditions noted are these: rat, in vivo.
Data set [2] relates to rats. The conditions noted are these: rat, in vivo. The source holds these as a separate data set.
Data set [3] deals with rats. The conditions noted are these: rat, in vivo. The source holds these as a separate data set.
For data set [4], the system named is rats. To be noted: rat, in vivo. The source holds these as a separate data set.
The subject of data set [5] is rats. The conditions noted are these: rat, in vivo. This is another data set of the same source.
Data set [6] relates to nicotinic receptors (rat brain membranes).
For data set [7] the test system is unchanged. The class given is binding.
Data set [8] has as its system rat liver microsomal system. The conditions noted are these: cited from earlier work.
The target of data set [9] is nicotinic receptors (rat brain membranes). The conditions noted are these: read-out: 3H-MCC Binding IC50.
The subject of a further data set is rats or mice. To be noted: in vivo; cited from earlier work.
The target of data set [10] is nicotinic receptors (rat brain membranes). The class given is binding. The conditions noted are these: for IC50: read-out: 3H-Nicotine Binding IC50.
Data set [11] has the same target. The class given is binding. To be noted: pH 7; read-out: [3H]-MCC IC50.
For data set [12], the system named is rats. In words: animal or person. The conditions noted are these: Rattus norvegicus, ip, 7 min, read-out: % Antagonism (seizures).
Data set [13] relates to rats. Set-up: species or system Sprague-Dawley male rats; Blockade of (nicotine-induced prostration) EC50: unit not given here. To be noted: rat, in vivo.
In data set [14] the test system is rats. The data set is described as follows: animal or person. To be noted: Rattus norvegicus, iv, read-out: Antagonistic dose needed to completely block elevation in systolic blood pressure.
A further data set relates to rat brain. The conditions noted are these: cited from earlier work.
The conditions of data set [15]: in vivo; cited from earlier work.

As to `CN1CCCC1c1cccnc1` (single isomer, unassigned; (-)) [(-)-nicotine], the Mortality in the data set on rats [1] (ip, 3 mg/kg) is recorded as 8/10. Also, the “increase in systolic blood pressure by nicotine” value in the data set with rats [2] (iv) is given as 25%. Besides, in the data set on rats [3], the “Prostration EC50” value is recorded as 2; the “agonist or inactive on prostration, in words” value is reported as “agonists”; the duration of prostration was in the range of 2 to 4 min; the “onset of prostration response” value is 1 to 3 s. Also, in the data set with rats [3], the “respiratory effect, in words” value is “deep diaphragmatic breathing and a decreased respiratory rate”. The “signs after nicotine, in words” value in the data set on rats [4] is “prostration followed by tremors, fasciculations, cyanosis and labored breathing, and myoclonic seizures”. In addition, in the data set with rats [4] (ip, 1.5 mg/kg), the Seizures is reported as 10/10. Further, in the data set with rats [5], the “dose producing effect: prostration, in words” value is “prostration of all four limbs”; the “times more effective than (+)-enantiomer of nicotine (prostration)” value amounted to 20 times; the “times more potent than N'-ethyl analogue (prostration)” value was 10 times; the “times more potent than N'-propyl analogue (prostration)” value came out at 40 times. Also, in the data set with rats [5], the “times more potent than nicotonium analogue (prostration)” value worked out at 50 times and the “volume of nicotine solution required to produce prostration” value was 1-2 μl of a 10^-3 M solution.
Turning to `CN1CCCC1c1cccnc1` (single isomer, unassigned; (-)) [[^3 H]-nicotine, (-)-[^3 H]-nicotine], in data set [6], the “Bmax of higher affinity site, [3H]-nicotine” value amounted to 5e-15 mol/mg; the “Bmax of lower affinity site, [3H]-nicotine” value is 1e-14 mol/mg and 2e-14 mol/mg. The “displaceability of [3H]-nicotine binding by muscarinic antagonists” value in data set [7] is “not displaceable by muscarinic cholinergic antagonists”.
Regarding `CNC(=O)OCC[N+](C)(C)C` [MCC, Methylcarbamylcholine], in [8], the metabolism result is “metabolized by a rat liver microsomal system”. Moreover, in the data set on rats [3], the “Prostration EC50” value is 10 and the duration of prostration result is “over 20 min”. In the data set with rats [5], the “increase in psychotropic potency after quaternization of DMAE methyl carbamate” value is on record as “over 10 fold” and the “potency relative to (-)-nicotine (prostration)” value was 1/5.
`C[N+]1(C)CCCC1c1cccnc1` (stereo not drawn) [N'--methyl nicotonium]: the IC50 is 4 µM in data set [9] (pH 7.5); 7 µM in [10] (pH 7.5); 7 µM in data set [7] (pH 7, read-out: [3H]-nicotine IC50); 4 µM in data set [11]. Also, the “potency in producing seizures and mortality, in words” value in the data set on rats or mice is “more potent than nicotine in producing seizures and mortality”. Also, the “Prostration EC50” value in the data set with rats [3] is reported as 100. For the same compound, the “decrease in psychotropic potency with quaternization of nicotine” value in the data set on rats [5] is recorded as 50 fold.
`C[N+](C)(C)CCOC(=O)c1ccccc1` [TMAE benzoate, benzoylcholine]: in the data set on rats [12], the responders at 25 mg/kg stood at 78%. Also, in the data set with rats [1], the “% Antagonism (protection against nicotine mortality)” value was determined as 63% and the Mortality was 3/10. In addition, the “Antagonistic dose needed to completely block elevation in systolic blood pressure” value in the data set with rats [2] amounted to 1.5 ± 0.3 mg/kg. Besides, in the data set on rats [13], the “Blockade of (nicotine-induced prostration) EC50” value was 10 and the “times as effective as the DMAE ester” value is given as 5 times. In the data set with rats [4], the Seizures is reported as 1/8 and the “blockade of seizure activity” value amounted to 78%. Also, the ED100 in the data set on rats [14] turned out to be 1.5 mg/kg.
Consider `C[N+](C)(C)CCOC(=O)Nc1ccccc1` [TMAE phenylcarbamate], for which the IC50 in data set [9] came to 0.8 µM. The responders at 25 mg/kg in the data set on rats [12] was determined as 89%. Also, in the data set on rats [1], the “% Antagonism (protection against nicotine mortality)” value was determined as 50% and the Mortality is reported as 4/10. In addition, the IC50 in data set [10] was 6 µM. In the data set on rats [13], the “Blockade of (nicotine-induced prostration) EC50” value is 200; the “blockade of nicotine-induced prostration / antagonism, in words” value was “next in effectiveness and of comparable activity”. For the same compound, in the data set on rats [4], the Seizures is 1/9 and the “protection against seizures, in words” value was “almost complete protection”. Moreover, in the data set with rats [14], the ED100 was determined as 5 ± 1 mg/kg.
On to `CC(=O)OCC[N+](C)(C)C` [[^3 H]-acetylcholine], for which the “displaceability of [3H]-acetylcholine binding by muscarinic antagonists” value with rat brain was “displaceable by low concentrations of muscarinic antagonists”.
For the compound `CN1[C@@H](CC(=O)c2ccccc2)CCC[C@H]1C[C@H](O)c1ccccc1` [α-lobeline, reference compound], the IC50 in [9] was 0.0007 µM. The responders at 5 mg/kg in the data set with rats [12] is 0%. Moreover, in the data set on rats [1], the “% Antagonism (reduction of nicotine mortality)” value came to 75% and the Mortality is on record as 2/10. Moreover, in data set [10], the “binding affinity for nicotine receptor, in words” value was “even greater affinity than (-)-nicotine for the receptor; also recorded: very high affinity for brain nicotine receptors” and the half-inhibitory concentration (IC50) amounted to 0.005 µM. Also, the “Antagonistic dose needed to completely block elevation in systolic blood pressure” value with rats [2] amounted to 0.2 ± 0.05 mg/kg. Moreover, in the data set with rats [13], the “Blockade of (nicotine-induced prostration) EC50” value is given as 10 and the “blockade of nicotine-induced prostration / antagonism, in words” value is given as “most effective antagonist”. Moreover, in the data set on rats [4], the Seizures is reported as 1/8 and the “protection against seizures, in words” value was “complete protection against seizures”. The “pharmacologic effects, in words” value in [15] is on record as “suppress the desire for tobacco; also recorded: hypertensive action resulting from the stimulation of the carotid body; also recorded: broncio-construction; also recorded: brochoarrythmia”. For the same compound, the ED100 in the data set on rats [14] was 0.2 mg/kg.
